Measurements: patent US5449662A, “Atrial natriuretic peptide clearance inhibitors which resist degradation” (Scios Nova Inc., priority 1992, dated 1995)

Legend:
[1] = test system: Female Sprague-Dawley rats; assay: In vivo diuresis and natriuresis in anesthetized rats; design: species or system rat; conditions: 300 ng/kg/min infusion, mean ± SE, n = 7
Method: The ability of analog #1 to effect diuresis and natriuresis in whole animals was determined as follows. Female Sprague-Dawley rats (230-260 g) anesthetized with inactin (100 mg/kg body weight) were catheterized by placing cannulae in femoral artery (B.P. monitoring), femoral vein (infusion of drugs and saline) and bladders (collection of urine). Post surgery, and prior to administration of test substance, saline was infused at 20 ul/min for 45 min in order to stabilize urine flow. Stabilization of urine flow was determined by collection of urine during several 10 min periods. Once stable urine flow was obtained, three 10 min control periods were collected followed by infusion of test compounds at 20 ul/min for 1 hr after priming with 10 times the infusion dose. Following experimental infusion period, saline was infused at 20 ul/min for 2 additional hr during the recovery phase. The urine volume collected during ten minute collection periods was determined gravimetrically. Urinary sodium excretion UNa V was determined photometrically.
Analog #1 infused at 10 ug/kg/min gives a mean 10-fold increase in urinary sodium excretion and a 2- to 3-fold increase in urinary flow rate. Maximal effects are not observed until the second or third experimental collection period and are sustained through the infusion.

[2] = target: T1, clearance receptor in isolated perfused rat kidney (Rattus norvegicus, UniProt P41740); assay: Rat kidney receptor binding assay (isolated perfused rat kidney); conditions: labeled compound 4 × 10^-12 M + competitor 1 × 10^-6 M; n = 2
T1 construct: the clearance receptor in isolated perfused rat kidney; from tissue; host or cells: isolated perfused rat kidney
T1 sequence (P41740 41-535): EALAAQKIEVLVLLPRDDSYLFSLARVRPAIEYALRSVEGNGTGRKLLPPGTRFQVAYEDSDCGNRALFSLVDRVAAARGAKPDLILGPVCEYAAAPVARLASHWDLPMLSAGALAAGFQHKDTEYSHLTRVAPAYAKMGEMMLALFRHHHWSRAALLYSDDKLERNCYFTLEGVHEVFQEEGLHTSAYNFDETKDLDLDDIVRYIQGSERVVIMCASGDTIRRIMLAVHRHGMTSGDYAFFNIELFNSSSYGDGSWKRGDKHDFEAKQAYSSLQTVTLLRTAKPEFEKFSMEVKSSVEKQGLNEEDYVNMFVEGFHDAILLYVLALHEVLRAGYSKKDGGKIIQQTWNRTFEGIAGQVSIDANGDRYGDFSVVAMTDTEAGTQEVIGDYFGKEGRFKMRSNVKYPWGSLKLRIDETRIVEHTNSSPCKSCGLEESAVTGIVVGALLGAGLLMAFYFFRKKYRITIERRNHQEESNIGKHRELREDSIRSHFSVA
Excerpt: The assay systems used are adapted from those of Schenk, D. B., et al, Biochem Biophys Res Commun (1985) 127:433-442 and Scarborough, R. M., J Biol Chem (1986) 261:12960-12964. These assays measure clearance receptor binding affinity through competition with ANP using the receptors on bovine aortic smooth muscle (BASM) or bovine aortic endothelial (BAE) cells. Also employed is the receptor binding affinity assay for the clearance receptor in isolated perfused rat kidney as described by Maack, T., et al, Science (1987) 238:675-679.
In the rat kidney receptor binding assay, the native 28-residue labeled ANP was used: I^125 labeled rANP(99-126), with the label linked to tyrosine at 126. The results of this assay are shown in Table 2 as the ratio of bound-to-free labeled rANP(99-126) in the presence and absence of competing compound.

| Substance | UNa V (urinary sodium excretion), difference between experimental and control periods [1] [uEq/min] | V (urine flow), difference between experimental and control periods [1] [µL/min] | Ratio of Bound/Free (125I)rANP(99-126), Whole Kidney [2] |
| --- | --- | --- | --- |
| hANP(102-126): human atrial natriuretic peptide 102-126, comparison in rat diuresis/natriuresis (WDSSDRSALLKSKLRALLTAPRSLR; Atrial natriuretic factor; UniProt P01160 102-126, looked up, fragment) | 2.24 ± 0.77 | 16.8 ± 9.3 | – |
| rANP(99-126): native 28-residue rat ANP, unlabeled competitor in the rat kidney binding assay [reference compound] | – | – | 0.56 |
